Values of other authors, collected in patent US8337856B2, “Methods of treatment using anti-ERBB antibody-maytansinoid conjugates” (Immunogen, Inc., priority 2000, dated 2012).

Conditions: clinical trials discontinued

COc1cc2cc(c1Cl)N(C)C(=O)C[C@H](OC(=O)[C@H](C)N(C)C(C)=O)[C@]1(C)O[C@H]1[C@H](C)[C@@H]1C[C@@](O)(NC(=O)O1)[C@H](OC)/C=C/C=C(\C)C2 [maytansine, Maytansine]
adverse effects in clinical trials: serious adverse effects on the central nervous system and gastrointestinal system
